Assays:
[1] = system: Diamond Back Moth (plutella xylostella); assay: Diamond back moth leaf-dip test on Chinese cabbage; type: in vivo; conditions: 300 ppm, recorded 24, 72 and 120 hours after treatment, in comparison with untreated controls
Description: (§1) If not otherwise specified the test solutions are prepared as follow:
(§2) The active compound is dissolved at the desired concentration in a mixture of 1:1 (vol:vol) distilled water:acteon. The test solution is prepared at the day of use and in general at concentrations of […].
B.3 Diamond Back Moth (plutella xylostella)
Leaves of Chinese cabbage were dipped in test solution and air-dried. Treated leaves were placed in petri dished lined with moist filter paper. Mortality was recorded 24, 72, and 120 hours after treatment.

[2] = system: Orchid Thrips (dichromothrips corbetti); assay: Orchid thrips floral-immersion test; type: in vivo; conditions: 300 ppm, after 4 days, in comparison with untreated controls
Description: B.4 Orchid Thrips (dichromothrips corbetti)
Dichromothrips corbetti adults used for bioassay are obtained from a colony maintained continuously under laboratory conditions. For testing purposes, the test compound is diluted to a concentration of 300 ppm (wt compound: vol diluent) in a 1:1 mixture of acetone:water (vol:vol), plus 0.01% vol/vol Kinetic® surfactant.
Thrips potency of each compound is evaluated by using a floral-immersion technique. Plastic petri dishes are used as test arenas. All petals of individual, intact orchid flowers are dipped into treatment solution and allowed to dry. Treated flowers are placed into individual petri dishes along with 10-15 adult thrips. The petri dishes are then covered with lids. All test arenas are held under continuous light and a temperature of about 28° C. for duration of the assay. After 4 days, the numbers of live thrips are counted on each flower, and along inner walls of each petri dish. The level of thrips mortality is extrapolated from pre-treatment thrips numbers.

[3] = system: Red spider Mite (Tetranychus kanzawai); assay: Red spider mite test on sprayed cowpea beans; type: in vivo; conditions: 300 ppm, spray, after 72 h, in comparison with untreated controls
Description: B.6 Red spider Mite (Tetranychus kanzawai)
The active compound was dissolved at the desired concentration in a mixture of 1:1 (v/v) distilled water:acetone. A surfactant (Alkamuls® EL 620) was added at the rate of 0.1% (v/v).
Potted cowpea beans of 7-10 days of age were cleaned with tap water and sprayed with 5 ml of the test solution using air driven hand atomizer. The treated plants were allowed to air dry and afterwards inculated with 20 or more mites by clipping a cassava leaf section with known mite population. Treated plants were placed inside a holding room at about 25-27° C. and about 50-60% relatice humidity.
ortality by counting the live mites 72 HAT. Percent mortality was assessed after 72 h.

[4] = system: Striped Flea Beetle (Phylotretta striolata); assay: Striped flea beetle leaf-dip test on Chinese cabbage; type: in vivo; conditions: 300 ppm, 72 hours after treatment, in comparison with untreated controls
Description: B.10 Striped Flea Beetle (Phylotretta striolata)
The active compound is dissolved at the desired concentration in a mixture of 1:1 (vol:vol) distilled water:acetone. Add surfactant (Alkamuls® EL620) at the rate of 0.1% (vol/vol). The test solution is prepared at the day of use.
Leaves of Chinese cabbage were dipped in test solution and air-dried. Treated leaves were placed in pertri dishes lined with moist filter paper and inoculated with 20 adults. Mortality was recorded 72 hours after treatment. Feeding damage were also recorded using scale of 0-100%.

[5] = system: Cotton Aphid (Aphis gossypi); assay: Cotton aphid spray test on infested cotton plants; type: in vivo; conditions: 120 h, after 5 days, in comparison with untreated controls
Description: B.1 Cotton Aphid (Aphis gossypi)
(§3) The active compounds were formulated in cyclohexanone as a 10,000 ppm solution supplied in tubes. The tubes were inserted into an automated electrostatic sprayer equipped with an atomizing nozzle and they served as stock solutions for which lower dilutions were made in 50% acetone: 50% water (v/v). A nonionic surfactant (Kinetic®) was included in the solution at a volume of 0.01% (v/v).
Cotton plants at the cotyledon stage were infested with aphids prior to treatment by placing a heavily infested leaf from the main aphid colony on top of each cotyledon. Aphids were allowed to transfer overnight to accomplish an infestation of 80-100 aphids per plant and the host leaf was removed. The infested plants were then sprayed by an automated electrostatic plant sprayer equipped with an atomizing spray nozzle. The plants were dried in the sprayer fume hood, removed from the sprayer, and then maintained in a growth room under fluorescent lighting in a 24-hr photoperiod at 25° C. and 20-40% relative humidity. Aphid mortality on the treated plants, relative to mortality on untreated control plants, was determined after 5 days.

[6] = system: Cowpea Aphid (aphis craccivora); assay: Cowpea aphid spray test on potted cowpea plants; type: in vivo; conditions: assessed after 24, 72 and 120 hours, in comparison with untreated controls
Description: as §1, §2
B.2 Cowpea Aphid (aphis craccivora)
Potted cowpea plants colonized with approximately 100-150 aphids of various stages were sprayed after the pest population has been recorded. Population reduction was assessed after 24, 72, and 120 hours.

[7] = system: Silverleaf Whitefly (Bemisia argentifolii); assay: Silverleaf whitefly test on sprayed cotton plants; type: in vivo; conditions: 72 h, spray, 3 days after treatment, in comparison with untreated controls
Description: B.5 Silverleaf Whitefly (Bemisia argentifolii)
as §3, with “acetone:50%” for “acetone: 50%”, “(Kinetic( )” for “(Kinetic®)”
Cotton plants at the cotyledon stage (one plant per pot) were sprayed by an automated electrostatic plant sprayer equipped with an atomizing spray nozzle. The plants were dried in the sprayer fume hood and then removed from the sprayer. Each pot was placed into a plastic cup and about 10 to 12 whitefly adults (approximately 3-5 days old) were introduced. The insects were collected using an aspirator and a nontoxic Tygon® tubing connected to a barrier pipette tip. The tip, containing the collected insects, was then gently inserted into the soil containing the treated plant, allowing insects to crawl out of the tip to reach the foliage for feeding. Cups were covered with a reusable screened lid. […] Mortality was assessed 3 days after treatment, compared to untreated control plants.

[8] = system: Vetch Aphid (Megoura viciae); assay: Vetch aphid leaf disk microtiter plate test; type: in vivo; conditions: foliar, 120 h, leaf disks sprayed, 5 days, in comparison with untreated controls
Description: B.7 Vetch Aphid (Megoura viciae)
For evaluating control of vetch aphid (Megoura viciae) through contact or systemic means the test unit consisted of 24-well-microtiter plates containing broad bean leaf disks.
The compounds were formulated using a solution containing 75% v/v water and 25% v/v DMSO. Different concentrations of formulated compounds were sprayed onto the leaf disks at 2.5 μl, using a custom built micro atomizer, at two replications.
After application, the leaf disks were air-dried and 5-8 adult aphids placed on the leaf disks inside the microtiter plate wells. The aphids were then allowed to suck on the treated leaf disks and incubated at about 23±1° C. and about 50±5% relative humidity for 5 days. Aphid mortality and fecundity was then visually assessed.

[9] = system: Green Peach Aphid (Myzus persicae); assay: Green peach aphid spray test on bell pepper plants; type: in vivo; conditions: 120 h, after 5 days, in comparison with untreated controls
Description: B.8 Green Peach Aphid (Myzus persicae)
as §3, with “are” for “were”, “is” for “was”
Bell pepper plants at the first true-leaf stage are infested prior to treatment by placing heavily infested leaves from the main colony on top of the treatment plants. Aphids are allowed to transfer overnight to accomplish an infestation of 30-50 aphids per plant and the host leaves are removed. The infested plants are then sprayed by an automated electrostatic plant sprayer equipped with an atomizing spray nozzle. The plants are dried in the sprayer fume hood, removed, and then maintained in a growth room under fluorescent lighting in a 24-hr photoperiod at about 25° C. and about 20-40% relative humidity. Aphid mortality on the treated plants, relative to mortality on untreated control plants, is determined after 5 days.

[10] = system: Rice Green Leafhopper (Nephotettix virescens); assay: Rice green leafhopper test on sprayed rice seedlings; type: in vivo; conditions: spray, after 72 hours, in comparison with untreated controls
Description: B.9 Rice Green Leafhopper (Nephotettix virescens)
Rice seedlings are cleaned and washed 24 hours before spraying. The active compounds are formulated in 50:50 acetone:water (vol:vol), and 0.1% vol/vol surfactant (EL 620) is added. Potted rice seedlings are sprayed with 5 ml test solution, air dried, placed in cages and inoculated with 10 adults. Treated rice plants are kept at about 28-29° C. and relative humidity of about 50-60%. Percent mortality is recorded after 72 hours.

[11] = system: antibodies against lysergic acid-bovine serum albumin conjugates; conditions: antibodies raised in rabbits against lysergic acid conjugates; Arens et al, Planta Medica (1980); cited from earlier work
[12] = system: yellowfever mosquito larvae (Aedes aegypti); assay: Larval mosquito water treatment assay; conditions: 120 h

Molecule	mortality [1]	mortality [2]	mortality [3]	mortality [4]	mortality at 300 ppm [5] [%]	mortality at 300 ppm [6] [%]	mortality at 300 ppm [7] [%]	mortality at 2500 ppm [8] [%]	mortality at 300 ppm [9] [%]	mortality at 300 ppm [10] [%]	cross reaction activity [11]	mortality at 10 ppm [12] [%]
N-methylcarbamoyl-(1aR,3aR,9bR)-1a,2,3,3a,4,6-hexahydro-1a,3-dimethyl-1H-cycloprop[c]indolo[4,3-ef]indole [compound 1-2]	at least 75%	at least 75%	at least 75%	at least 75%	–	–	–	–	–	–	–	–
CN1CC2(C)CC23c2cccc4[nH]cc(c24)CC13 (stereo not drawn) [compound 1-1, cycloclavin]	–	–	–	–	≥ 75	≥ 75	≥ 75	≥ 75	≥ 75	≥ 75	did not show cross reaction activity	≥ 60

— patent US20150335021A1, “Cycloclavine and Derivatives Thereof for Controlling Invertebrate Pests” (BASF SE, priority 2012, published 2015)
